# Experimental data published in article PMC3662833 (Journal of molecular biology, 2011).
# Tests used:
# [1] = in words
# Unmodified ASL^Lys3UUU = assay: FITC-peptide fluorescence quenching titration with ASL; assay type: binding, human; conditions: in words; for interaction with unmodified ASL^Lys3UUU: FITC-peptide fluorescence quenching
# Peptide structure by CD = assay type: physicochemical; conditions: in words
# unmodified hASL^Lys3UUU = assay: ESI-MS complex formation; assay type: binding, human; conditions: preliminary, data not shown, in words
# ASL^Val3UAC-m^6A37 = assay: FITC-peptide fluorescence quenching titration with ASL; assay type: binding, E. coli; conditions: in words
# E. coli ASL^Val3UAC = assay: ESI-MS complex formation; assay type: binding; conditions: peptide in five-fold excess, preliminary, data not shown
sequence,measurement,setting,value
HRGYCRDRWNCGEYF [Peptide P15],solubility,[1],lacked the solubility required of the assay
"AGPVPLHSLSYYYNQ [Peptide P31, reference compound]",RNA binding (control peptide),"Unmodified ASL^Lys3UUU; control used as a baseline, ASL not specified, data not shown",non-RNA binding
RVTHHAFLGAHRTVG [Peptide P6],structure as determined by CD,Peptide structure by CD,lack of structure
same,RNA bound by P6,unmodified hASL^Lys3UUU,small amounts
same,binding of ASL^Val3UAC-m^6A37,ASL^Val3UAC-m^6A37,did not bind
same,interaction with unmodified ASL^Lys3UUU,Unmodified ASL^Lys3UUU,little to no interaction
same,RNA in complex with P6,E. coli ASL^Val3UAC,50%
PHRQCSAPAKSCKILP [Peptide P17],interaction with unmodified ASL^Lys3UUU,Unmodified ASL^Lys3UUU,little to no interaction
